Structures can show the parent of a compound that is named as a salt.

The results in this text go back to patent US8710241B2, “Crystalline form of zofenopril calcium” (Generics [UK]Limited, priority 2007, dated 2014).

Data set [1] can be described thus: Water vapour sorption isotherm (Surface Measurement Systems DVS-HT). The format is physicochemical. As to conditions: 25° C.; for Maximum water uptake: high/elevated relative humidity levels (greater than 90% rh), calcium salt. The method, then:
Equilibrium water uptake levels of less than 0.5 wt % were observed up to a relative humidity level of 70% rh, which may be considered the uppermost limit of ambient humidity conditions.
Determination of the water vapour sorption isotherms of zofenopril calcium crystalline form D according to the invention and of the prior art form B were performed by Surface Measurement Systems DVS-HT. The resultant isotherms, as shown in FIGS. 4 and 5 respectively, were obtained under the following parameters: • Temperature=25° C. • Humidity profile: Desorption 1: 50-0% relative humidity (rh) in steps of 10% • Adsorption: 0-90% rh in steps of 10%, 95% rh • Desorption 2: 95% rh, 90-50% rh in steps of 10% • Equilibration time per rh stage: 240 min (0% rh), 180 min (all other rh levels)

For data set [2] the following is noted: TGA, 25-105° C.
Description: The compounds obtained by the processes according to the invention as described above and in the following examples were also subjected to thermogravimetric analysis (TGA). […] The TGA analysis data was obtained using a Mettler-Toledo TGA851e apparatus under the following parameters: • Temperature profile: 25-300° C.@5° C./min • Nitrogen purge gas: 50 ml/min • Aluminium pan: 40 μl, pierced prior to scan
Data set [3] in a line: Conditioning (equilibration) of dried samples, characterised by XRPD. The following applies: conditioned at 30° C. for 30 minutes under nitrogen after drying. The format is physicochemical. The method, then: Approximately 100 mg of zofenopril calcium were dried at 50° C. for 120 minutes under a nitrogen flow atmosphere (flow rate: 500 ml/min). The sample was finally conditioned at 30° C. for 30 minutes under the nitrogen gas atmosphere.
The drying processes as detailed in the above examples yield the novel anhydrous form D of zofenopril calcium according to the invention. […] Thus, the compounds prepared by examples 1-5 were determined to be the same crystalline form and were distinct from the prior art forms A, B, and C. Further, the samples were then ‘conditioned’, i.e. they were allowed to equilibrate.

Data set [4] can be described thus: DSC and XRPD experiments on polymorphic transition. Type of data set: physicochemical. The following applies: up to temperatures of ca. 140° C. The method, then: The X-ray powder diffraction data was obtained by methods known in the art using a Bruker D8 Advance Powder Diffractometer with scintillation detector under the following parameters: • Reflectance mode • Cu Kα radiation (1.5406 Å) • Scanning range: 2-30 °2θ • Step size: 0.02 °2θ • Time per step: 6s

Take `C[C@H](CSC(=O)c1ccccc1)C(=O)N1C[C@@H](Sc2ccccc2)C[C@H]1C(=O)O` [form D, (4S)-1-[(2S)-3-(benzoylthio)-2-methylpropionyl]-4-(phenylthio)-L-proline calcium salt]: the Maximum water uptake entry in data set [1] is “ca. 1 wt %”. The Equilibrium water uptake entry in data set [1] (up to a relative humidity level of 70% rh) is listed as “less than 0.5 wt %”. Also, the “Re-conversion to hydrate form C upon exposure to water vapour” value in data set [1] (water vapour sorption isotherm, 0-95% rh) is on record as “does not easily re-convert to hydrate form C”. For the same compound, in data set [2], the “Weight loss, equivalent to loss on drying (LOD)” value is “less than 0.5 wt %”. For the same compound, the “Conversion upon cooling to hydrated form C or another crystalline form” value in data set [3] was “no conversion”. Moreover, the Polymorphic transition result in data set [4] is reported as “no polymorphic transition”.
With `C[C@H](CSC(=O)c1ccccc1)C(=O)N1C[C@@H](Sc2ccccc2)C[C@H]1C(=O)O` [form B, (4S)-1-[(2S)-3-(benzoylthio)-2-methylpropionyl]-4-(phenylthio)-L-proline calcium salt, reference compound], the Maximum water uptake result in data set [1] was “approximately 2.5 wt %”.
